Source: patent US7776827B2 (ImmuneRegen Biosciences, Inc., priority 2007, dated 2010)

Tests used:
Assay type in all cases: cell-based
[1] = test system: CFU-Mk (platelet precursors); experiment: Colony forming unit (CFU) assay, human bone marrow cells (Example 6); conditions: in the presence of substance P
Text: (§1) As stem cells differentiate in response to growth factors, they form a colony of cells with distinct morphologies that can be visualized using a microscope. This study examined the formation of three different progenitor cell populations, erythrocytes, platelets and granulocytes/macrophages.
(§2) Bone marrow aspirates were obtained from three healthy donors between 18 and 35 years of age following appropriate guidelines and protocols. Bone marrow mononuclear cells were isolated using a Ficoll-Hypaque density gradient, separating red blood cells from the others. Cells from each donor were processed independently and used for setting up individual experiments to assess the effects, if any, of donor variability.
(§3) Cells (1×10^5) were plated in duplicate onto 35 mm tissue culture plates for each condition tested and set up as described in Rameshwar et al. 1993, Blood. 81:2, 391-398. Erythroid and granulocyte/macrophage cultures were plated using methylcellulose and megakaryocyte cultures (platelet precursors) used a collagen-based support (StemCell Technologies, Vancouver, Canada, catalogue #04973). […] CP 99,994 (Pfizer) was used as a neurokinin-1 receptor antagonist and SR 48968 (Sanofi) was used as a neurokinin-2 receptor antagonist.
Cultures were set up with limited cytokines and growth factors which would promote differentiation of one progenitor per plate. […]

BFU-E = experiment: as above; conditions: FIG. 1; control = zero level
Text: as §1, §2
as §3, with “antagonist. […]” for “antagonist.”

CFU-E = experiment: as above; conditions: FIG. 2; control = zero level
Text: as §1, §2
as §3, with “antagonist. […]” for “antagonist.”

[2] = test system: human bone marrow-derived hematopoietic cell populations; experiment: CFC differentiation and ATP proliferation assays, overall statements (Example 4)
Protocol: The compound was dissolved in 1 ml of Iscove's Modified Dulbecco's Medium (IMDM) and a serial dose response prepared in single log doses so that the final dose in culture ranged from 1 nM to 1×10^−16 M. All working dilutions were performed in IMDM.
Starting with human bone marrow aspirate, the mononuclear cell (MNC) fraction was separated from the whole bone marrow using Ficoll-Paque density gradient centrifugation. […] The cell concentration was adjusted so that the final cell concentration in culture was 10,000 cells/well.
Human bone marrow MNC was dissolved in IMDM and cultured at a concentration of 10,000 cell/well in a CAMEO™-96 Master Mix (HemoGenix, Inc., Colorado Springs, Colo.). […]
Prior to processing all 96-well plates, the total colony counts/well were manually enumerated by microscopy. The mean, standard deviation and percent coefficient of variation was calculated for all groups, transposed and plotted. The intracellular ATP (iATP) concentration was measured after manual enumeration. The output of the luminometer is non-standardized Relative Luminescence Units (RLU). […] This allowed the RLU values to be automatically calculated into standardized ATP (μM) units. For both the RLU and ATP values derived from each well, the luminometer software calculated the mean, standard deviation and percent coefficient of variation.

[3] = test system: seven human-derived hematopoietic cell populations; experiment: CFC assay, three donors, overall statements (Example 5); conditions: highest doses (1 nM)
Protocol: Compound was dissolved in 1 ml of Iscove's Modified Dulbecco's Medium (IMDM) and a serial dose response was prepared in single log doses so that the final dose in culture ranged from 1 nanoMolar (nM) to 1×10^−16 M. All working dilutions were performed in IMDM. Cell cultures from each donor were started at different times and a fresh solution of HOMSPERA® was prepared for each individual experiment.
Starting with human bone marrow aspirate, the mononuclear cell (MNC) fraction from each aspirate was separated from whole bone marrow using Ficoll-Paque density gradient centrifugation.
The colony-forming cell (CFC) assay was performed using optimal growth factor/cytokine concentrations. The reagents and conditions were similar to those used in Example 4, except that no ATP measurements were performed. The MNC fraction from each bone marrow donor was dissolved in IMDM and cultured at a concentration of 5,000 cells/well in a Culture Master Mix (HemoGenix, Inc., Colorado Springs, Colo.). […]
The mean, standard deviation and percent coefficient of variation was calculated for all groups, transposed and plotted as a function of donor. The percent from control values were calculated and also plotted as a function of donor. […]

COc1ccccc1CN[C@H]1CCCN[C@H]1c1ccccc1 [CP-99,994]
effect of receptor antagonist on substance P stimulation of platelet colony formation [1]: blocks the stimulatory activity of substance P

Arg Pro Lys Pro Gln Gln Phe Phe Gly Leu Met [substance P]
BFU-E colony formation, increase from control values (BFU-E): ~60%
CFU-E colony formation, enhancement from control values (CFU-E): about 70%

CC(C)C[C@H](NC(=O)CN(C)C(=O)[C@H](Cc1ccccc1)NC(=O)[C@H](Cc1ccccc1)NC(=O)[C@H](CCC(N)=O)NC(=O)[C@H](CCC(N)=O)NC(=O)[C@@H]1CCCN1C(=O)[C@H](CCCCN)NC(=O)[C@@H]1CCCN1C(=O)[C@@H](N)CCCNC(=N)N)C(=O)N[C@@H](CCS(C)(=O)=O)C(N)=O [HOMSPERA®]
toxicity ([2]; B-CFC and T-CFC, levels tested): do not demonstrate toxicity at the levels tested
cytotoxicity ([2]; most of populations, 14 days, 1 nM to 1×10^−16 M): apparent absence of distinct cytotoxicity
toxicity [3]: no apparent toxicity at the highest doses

CC(=O)NC1(c2ccccc2)CCN(CC[C@H](CN(C)C(=O)c2ccccc2)c2ccc(Cl)c(Cl)c2)CC1 [SR48968]
effect of receptor antagonist on substance P stimulation of platelet colony formation [1]: showed no effect on substance P activity in enhancing platelet colony formation
